Test results from ChEMBL document CHEMBL3885881, “DrugMatrix”.

Organism: Rattus norvegicus
Experiment: DrugMatrix - Regimen: Daily Repeat
Assay type: toxicity, organism-based, Sprague-Dawley
Design: regimen Daily Repeat, gender Male, age 6-8 weeks
Settings: in vivo, sc, route subcutaneous, […]; for ABSOLUTE BASOPHIL / ABSOLUTE EOSINOPHIL / ABSOLUTE LYMPHOCYTE / ABSOLUTE MONOCYTE / ABSOLUTE SEGMENTED NEUTROPHIL / BASOPHIL / EOSINOPHIL / ERYTHROCYTE COUNT / HEMATOCRIT / HEMOGLOBIN / LEUKOCYTE COUNT / LYMPHOCYTE / MEAN CORPUSCULAR HEMOGLOBIN / MEAN CORPUSCULAR HEMOGLOBIN CONCENTRATION / MEAN CORPUSCULAR VOLUME / MONOCYTE / NEUTROPHIL / NUCLEATED RED BLOOD CELLS / PLATELET COUNT: tissue Blood; for ALANINE AMINOTRANSFERASE / ALBUMIN / ALKALINE PHOSPHATASE / ASPARTATE AMINOTRANSFERASE / BLOOD UREA NITROGEN / CARBON DIOXIDE / CHLORIDE / CHOLESTEROL / CREATINE PHOSPHOKINASE / CREATININE / GLUCOSE / LACTATE DEHYDROGENASE / LIPASE / PHOSPHORUS / POTASSIUM / SODIUM / TOTAL BILIRUBIN / TOTAL PROTEIN / URIC ACID: tissue Plasma
[1] = 2 mg/kg, 120 h, dose level Low, time 5 day
[2] = 17 mg/kg, 72 h, dose level High, time 3 day
[3] = 17 mg/kg, 120 h, dose level High, time 5 day

Structure (SMILES): CCC(=O)O[C@]1(C(=O)CCl)[C@@H](C)C[C@H]2[C@@H]3CCC4=CC(=O)C=C[C@]4(C)[C@@]3(F)[C@@H](O)C[C@@]21C [CLOBETASOL PROPIONATE]
- ABSOLUTE BASOPHIL [1]: 0 CELLS/uL
- ABSOLUTE EOSINOPHIL [1]: 128.67 CELLS/uL
- ABSOLUTE LYMPHOCYTE [1]: 583 CELLS/uL
- ABSOLUTE MONOCYTE [1]: 17.33 CELLS/uL
- ABSOLUTE SEGMENTED NEUTROPHIL [1]: 7437.67 CELLS/uL
- BASOPHIL [1]: 0%
- EOSINOPHIL [1]: 1.33%
- ERYTHROCYTE COUNT [1]: 6.32 x10E6/uL
- HEMATOCRIT [1]: 40.2%
- HEMOGLOBIN [1]: 14.5 G/DL
- LEUKOCYTE COUNT [1]: 8.17 x10E3/uL
- LYMPHOCYTE [1]: 6.67%
- MEAN CORPUSCULAR HEMOGLOBIN [1]: 23.07 pg
- MEAN CORPUSCULAR HEMOGLOBIN CONCENTRATION [1]: 36.1 G/DL
- MEAN CORPUSCULAR VOLUME [1]: 63.83 fL
- MONOCYTE [1]: 0.33%
- NEUTROPHIL [1]: 91.67%
- NUCLEATED RED BLOOD CELLS [1]: 0 /100WBC
- PLATELET COUNT [1]: 805.67 x10E3/uL
- ALANINE AMINOTRANSFERASE [1]: 191.67 u/L
- ALBUMIN [1]: 4.53 G/DL
- ALKALINE PHOSPHATASE [1]: 392 u/L
- ASPARTATE AMINOTRANSFERASE [1]: 342 u/L
- BLOOD UREA NITROGEN [1]: 24.33 mg/dL
- CARBON DIOXIDE [1]: 19.67 mmol/L
- CHLORIDE [1]: 102.67 MEQ/L
- CHOLESTEROL [1]: 160 mg/dL
- CREATINE PHOSPHOKINASE [1]: 1604 u/L
- CREATININE [1]: 0.28 mg/dL
- GLUCOSE [1]: 604.67 mg/dL
- LACTATE DEHYDROGENASE [1]: 516.33 u/L
- LIPASE [1]: 10.33 u/L
- PHOSPHORUS [1]: 11.93 mg/dL
- POTASSIUM [1]: 4.7 MEQ/L
- SODIUM [1]: 143.1 MEQ/L
- TOTAL BILIRUBIN [1]: 0.7 mg/dL
- TOTAL PROTEIN [1]: 6.67 G/DL
- URIC ACID [1]: 0.9 mg/dL
- ABSOLUTE BASOPHIL [2]: 0 CELLS/uL
- ABSOLUTE EOSINOPHIL [2]: 24 CELLS/uL
- ABSOLUTE LYMPHOCYTE [2]: 383 CELLS/uL
- ABSOLUTE MONOCYTE [2]: 0 CELLS/uL
- ABSOLUTE SEGMENTED NEUTROPHIL [2]: 2026.33 CELLS/uL
- BASOPHIL [2]: 0%
- EOSINOPHIL [2]: 1%
- ERYTHROCYTE COUNT [2]: 5.77 x10E6/uL
- HEMATOCRIT [2]: 36.77%
- HEMOGLOBIN [2]: 13.07 G/DL
- LEUKOCYTE COUNT [2]: 2.43 x10E3/uL
- LYMPHOCYTE [2]: 15.67%
- MEAN CORPUSCULAR HEMOGLOBIN [2]: 22.7 pg
- MEAN CORPUSCULAR HEMOGLOBIN CONCENTRATION [2]: 35.57 G/DL
- MEAN CORPUSCULAR VOLUME [2]: 63.9 fL
- MONOCYTE [2]: 0%
- NEUTROPHIL [2]: 83.33%
- NUCLEATED RED BLOOD CELLS [2]: 0 /100WBC
- PLATELET COUNT [2]: 1160 x10E3/uL
- ALANINE AMINOTRANSFERASE [2]: 95 u/L
- ALBUMIN [2]: 5.23 G/DL
- ALKALINE PHOSPHATASE [2]: 460.67 u/L
- ASPARTATE AMINOTRANSFERASE [2]: 128.33 u/L
- BLOOD UREA NITROGEN [2]: 25.67 mg/dL
- CARBON DIOXIDE [2]: 23.33 mmol/L
- CHLORIDE [2]: 101.5 MEQ/L
- CHOLESTEROL [2]: 162.67 mg/dL
- CREATINE PHOSPHOKINASE [2]: 209.33 u/L
- CREATININE [2]: 0.29 mg/dL
- GLUCOSE [2]: 571.33 mg/dL
- LACTATE DEHYDROGENASE [2]: 160.33 u/L
- LIPASE [2]: 10.5 u/L
- PHOSPHORUS [2]: 10 mg/dL
- POTASSIUM [2]: 4.82 MEQ/L
- SODIUM [2]: 141.8 MEQ/L
- TOTAL BILIRUBIN [2]: 0.2 mg/dL
- TOTAL PROTEIN [2]: 7.47 G/DL
- URIC ACID [2]: 0.4 mg/dL
- ABSOLUTE BASOPHIL [3]: 0 CELLS/uL
- ABSOLUTE EOSINOPHIL [3]: 214.67 CELLS/uL
- ABSOLUTE LYMPHOCYTE [3]: 340.67 CELLS/uL
- ABSOLUTE MONOCYTE [3]: 76.33 CELLS/uL
- ABSOLUTE SEGMENTED NEUTROPHIL [3]: 17401.67 CELLS/uL
- BASOPHIL [3]: 0%
- EOSINOPHIL [3]: 1%
- ERYTHROCYTE COUNT [3]: 6.25 x10E6/uL
- HEMATOCRIT [3]: 38.87%
- HEMOGLOBIN [3]: 14.47 G/DL
- LEUKOCYTE COUNT [3]: 18.03 x10E3/uL
- LYMPHOCYTE [3]: 2%
- MEAN CORPUSCULAR HEMOGLOBIN [3]: 23.17 pg
- MEAN CORPUSCULAR HEMOGLOBIN CONCENTRATION [3]: 37.23 G/DL
- MEAN CORPUSCULAR VOLUME [3]: 62.2 fL
- MONOCYTE [3]: 0.33%
- NEUTROPHIL [3]: 96.67%
- NUCLEATED RED BLOOD CELLS [3]: 0 /100WBC
- PLATELET COUNT [3]: 927.33 x10E3/uL
- ALANINE AMINOTRANSFERASE [3]: 204.67 u/L
- ALBUMIN [3]: 3.67 G/DL
- ALKALINE PHOSPHATASE [3]: 242.33 u/L
- ASPARTATE AMINOTRANSFERASE [3]: 271.33 u/L
- BLOOD UREA NITROGEN [3]: 24.67 mg/dL
- CARBON DIOXIDE [3]: 22 mmol/L
- CHLORIDE [3]: 99.33 MEQ/L
- CHOLESTEROL [3]: 122.33 mg/dL
- CREATINE PHOSPHOKINASE [3]: 1143.67 u/L
- CREATININE [3]: 0.2 mg/dL
- GLUCOSE [3]: 515.33 mg/dL
- LACTATE DEHYDROGENASE [3]: 439.33 u/L
- LIPASE [3]: 9.67 u/L
- PHOSPHORUS [3]: 12.77 mg/dL
- POTASSIUM [3]: 4.7 MEQ/L
- SODIUM [3]: 140.6 MEQ/L
- TOTAL BILIRUBIN [3]: 0.73 mg/dL
- TOTAL PROTEIN [3]: 5.7 G/DL
- URIC ACID [3]: 1.07 mg/dL
